Data as given in ChEMBL document CHEMBL5723584 (2023).
Calls of active or inactive are those of the source. The calls are words filed in the database; no cut-off is given here.

Legend:
[1] = target: Citron Rho-interacting kinase (Homo sapiens, UniProt O14578); assay: Promega NanoBRET (CIT)
[2] = target: Cyclin-G-associated kinase (Homo sapiens, UniProt O14976); assay: Promega NanoBRET (GAK)
[3] = target: cAMP-dependent protein kinase catalytic subunit alpha (Homo sapiens, UniProt P17612); assay: Promega NanoBRET (PRKACA)
[4] = target: Serine-protein kinase ATM (Homo sapiens) (UniProt Q13315); assay: activity of ATM(h) at 1.0 µM in the Eurofins Kinase panel; details: Compound concentration 1.0 uM
Aurora kinase B = Aurora kinase B (Homo sapiens, UniProt Q96GD4); assay: activity of Aurora-B(h) at 1.0 µM in the Eurofins Kinase panel; details: Compound concentration 1.0 uM
[5] = target: Calcium/calmodulin-dependent protein kinase type IV (Homo sapiens) (UniProt Q16566); assay: activity of CaMKIV(h) at 1.0 µM in the Eurofins Kinase panel; details: Compound concentration 1.0 uM
[6] = target: Calcium/calmodulin-dependent protein kinase type 1D (Homo sapiens) (UniProt Q8IU85); assay: activity of CaMKIdelta(h) at 1.0 µM in the Eurofins Kinase panel; details: Compound concentration 1.0 uM
[7] = target: CDK17/Cyclin-Y (Homo sapiens) (UniProt Q00537+Q8ND76); assay: activity of CDK17/cyclinY(h) at 1.0 µM in the Eurofins Kinase panel; assay type: protein-complex assay; details: Compound concentration 1.0 uM
[8] = target: Cyclin-dependent kinase 2/cyclin A (Homo sapiens) (UniProt P24941+P20248+P78396); assay: activity of CDK2/cyclinA(h) at 1.0 µM in the Eurofins Kinase panel; assay type: protein-complex assay; details: Compound concentration 1.0 uM
[9] = target: Serine/threonine-protein kinase DCLK2 (Homo sapiens) (UniProt Q8N568); assay: activity of DCAMKL2(h) at 1.0 µM in the Eurofins Kinase panel; details: Compound concentration 1.0 uM
[10] = target: Epithelial discoidin domain-containing receptor 1 (Homo sapiens) (UniProt Q08345); assay: activity of DDR1(h) at 1.0 µM in the Eurofins Kinase panel; details: Compound concentration 1.0 uM
[11] = target: Ephrin type-B receptor 3 (Homo sapiens) (UniProt P54753); assay: activity of EphB3(h) at 1.0 µM in the Eurofins Kinase panel; details: Compound concentration 1.0 uM
[12] = target: Tyrosine-protein kinase Fyn (Homo sapiens) (UniProt P06241); assay: activity of Fyn(h) at 1.0 µM in the Eurofins Kinase panel; details: Compound concentration 1.0 uM
[13] = target: Homeodomain-interacting protein kinase 1 (Homo sapiens) (UniProt Q86Z02); assay: activity of HIPK1(h) at 1.0 µM in the Eurofins Kinase panel; details: Compound concentration 1.0 uM
[14] = target: Eukaryotic translation initiation factor 2-alpha kinase 1 (Homo sapiens) (UniProt Q9BQI3); assay: activity of HRI(h) at 1.0 µM in the Eurofins Kinase panel; details: Compound concentration 1.0 uM
[15] = target: Insulin receptor (Homo sapiens) (UniProt P06213); assay: activity of IR(h), activated at 1.0 µM in the Eurofins Kinase panel; details: Compound concentration 1.0 uM
[16] = target: Tyrosine-protein kinase ITK/TSK (Homo sapiens) (UniProt Q08881); assay: activity of Itk(h) at 1.0 µM in the Eurofins Kinase panel; details: Compound concentration 1.0 uM
[17] = target: Tyrosine-protein kinase JAK1 (Homo sapiens) (UniProt P23458); assay: activity of JAK1(h) at 1.0 µM in the Eurofins Kinase panel; details: Compound concentration 1.0 uM
[18] = target: Serine/threonine-protein kinase MAK (Homo sapiens) (UniProt P20794); assay: activity of MAK(h) at 1.0 µM in the Eurofins Kinase panel; details: Compound concentration 1.0 uM
[19] = target: Mitogen-activated protein kinase kinase kinase kinase 3 (Homo sapiens) (UniProt Q8IVH8); assay: activity of MAP4K3(h) at 1.0 µM in the Eurofins Kinase panel; details: Compound concentration 1.0 uM
[20] = target: Mitogen-activated protein kinase 1 (Homo sapiens) (UniProt P28482); assay: activity of MAPK1(h) at 1.0 µM in the Eurofins Kinase panel; details: Compound concentration 1.0 uM
[21] = target: Mitogen-activated protein kinase kinase kinase 21 (Homo sapiens) (UniProt Q5TCX8); assay: activity of MLK4(h) at 1.0 µM in the Eurofins Kinase panel; details: Compound concentration 1.0 uM
[22] = target: Serine/threonine-protein kinase 38 (Homo sapiens) (UniProt Q15208); assay: activity of NDR1(h) at 1.0 µM in the Eurofins Kinase panel; details: Compound concentration 1.0 uM
[23] = target: Serine/threonine-protein kinase 38-like (Homo sapiens) (UniProt Q9Y2H1); assay: activity of NDR2(h) at 1.0 µM in the Eurofins Kinase panel; details: Compound concentration 1.0 uM
[24] = target: Serine/threonine-protein kinase Nek9 (Homo sapiens) (UniProt Q8TD19); assay: activity of NEK9(h) at 1.0 µM in the Eurofins Kinase panel; details: Compound concentration 1.0 uM
[25] = target: Phosphatidylinositol 4,5-bisphosphate 3-kinase catalytic subunit gamma isoform (Homo sapiens) (UniProt P48736); assay: activity of PI3 Kinase (p120gamma)(h) at 1.0 µM in the Eurofins Kinase panel; details: Compound concentration 1.0 uM
[26] = target: Serine/threonine-protein kinase pim-3 (Homo sapiens) (UniProt Q86V86); assay: activity of Pim-3(h) at 1.0 µM in the Eurofins Kinase panel; details: Compound concentration 1.0 uM
[27] = target: RAC-beta serine/threonine-protein kinase (Homo sapiens) (UniProt P31751); assay: activity of PKBbeta(h) at 1.0 µM in the Eurofins Kinase panel; details: Compound concentration 1.0 uM
[28] = target: Macrophage-stimulating protein receptor (Homo sapiens) (UniProt Q04912); assay: activity of Ron(h) at 1.0 µM in the Eurofins Kinase panel; details: Compound concentration 1.0 uM
[29] = target: Serine/threonine-protein kinase Sgk1 (Homo sapiens) (UniProt O00141); assay: activity of SGK(h) at 1.0 µM in the Eurofins Kinase panel; details: Compound concentration 1.0 uM
[30] = target: Serine/threonine-protein kinase SIK1 (Homo sapiens) (UniProt P57059); assay: activity of SIK(h) at 1.0 µM in the Eurofins Kinase panel; details: Compound concentration 1.0 uM
[31] = target: Serine/threonine-protein kinase SIK3 (Homo sapiens) (UniProt Q9Y2K2); assay: activity of SIK3(h) at 1.0 µM in the Eurofins Kinase panel; details: Compound concentration 1.0 uM
[32] = target: Serine/threonine-protein kinase 32C (Homo sapiens) (UniProt Q86UX6); assay: activity of STK32C(h) at 1.0 µM in the Eurofins Kinase panel; details: Compound concentration 1.0 uM
[33] = target: Mitogen-activated protein kinase kinase kinase 7 (Homo sapiens) (UniProt O43318); assay: activity of TAK1(h) at 1.0 µM in the Eurofins Kinase panel; details: Compound concentration 1.0 uM
[34] = target: Serine/threonine-protein kinase TBK1 (Homo sapiens) (UniProt Q9UHD2); assay: activity of TBK1(h) at 1.0 µM in the Eurofins Kinase panel; details: Compound concentration 1.0 uM
[35] = target: TGF-beta receptor type-1 (Homo sapiens) (UniProt P36897); assay: activity of TGFBR1(h) at 1.0 µM in the Eurofins Kinase panel; details: Compound concentration 1.0 uM
[36] = target: Serine/threonine-protein kinase ULK3 (Homo sapiens) (UniProt Q6PHR2); assay: activity of ULK3(h) at 1.0 µM in the Eurofins Kinase panel; details: Compound concentration 1.0 uM
[37] = target: Wee1-like protein kinase (Homo sapiens) (UniProt P30291); assay: activity of Wee1(h) at 1.0 µM in the Eurofins Kinase panel; details: Compound concentration 1.0 uM
[38] = target: 3-phosphoinositide-dependent protein kinase 1 (Homo sapiens) (UniProt O15530); assay: activity of PDK1(h) at 1.0 µM in the Eurofins Kinase panel; details: Compound concentration 1.0 uM

Macrophage-stimulating protein receptor (Homo sapiens), sequence (Q04912 25-304 limits assumed): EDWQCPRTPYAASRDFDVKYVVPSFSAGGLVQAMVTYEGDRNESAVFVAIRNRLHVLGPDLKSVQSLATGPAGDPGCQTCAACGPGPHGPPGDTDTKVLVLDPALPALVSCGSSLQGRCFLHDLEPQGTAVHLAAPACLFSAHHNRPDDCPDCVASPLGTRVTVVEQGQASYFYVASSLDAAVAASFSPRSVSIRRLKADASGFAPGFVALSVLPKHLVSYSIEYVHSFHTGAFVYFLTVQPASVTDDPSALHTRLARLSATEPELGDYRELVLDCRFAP
Macrophage-stimulating protein receptor (Homo sapiens), sequence (Q04912 310-1400 limits assumed): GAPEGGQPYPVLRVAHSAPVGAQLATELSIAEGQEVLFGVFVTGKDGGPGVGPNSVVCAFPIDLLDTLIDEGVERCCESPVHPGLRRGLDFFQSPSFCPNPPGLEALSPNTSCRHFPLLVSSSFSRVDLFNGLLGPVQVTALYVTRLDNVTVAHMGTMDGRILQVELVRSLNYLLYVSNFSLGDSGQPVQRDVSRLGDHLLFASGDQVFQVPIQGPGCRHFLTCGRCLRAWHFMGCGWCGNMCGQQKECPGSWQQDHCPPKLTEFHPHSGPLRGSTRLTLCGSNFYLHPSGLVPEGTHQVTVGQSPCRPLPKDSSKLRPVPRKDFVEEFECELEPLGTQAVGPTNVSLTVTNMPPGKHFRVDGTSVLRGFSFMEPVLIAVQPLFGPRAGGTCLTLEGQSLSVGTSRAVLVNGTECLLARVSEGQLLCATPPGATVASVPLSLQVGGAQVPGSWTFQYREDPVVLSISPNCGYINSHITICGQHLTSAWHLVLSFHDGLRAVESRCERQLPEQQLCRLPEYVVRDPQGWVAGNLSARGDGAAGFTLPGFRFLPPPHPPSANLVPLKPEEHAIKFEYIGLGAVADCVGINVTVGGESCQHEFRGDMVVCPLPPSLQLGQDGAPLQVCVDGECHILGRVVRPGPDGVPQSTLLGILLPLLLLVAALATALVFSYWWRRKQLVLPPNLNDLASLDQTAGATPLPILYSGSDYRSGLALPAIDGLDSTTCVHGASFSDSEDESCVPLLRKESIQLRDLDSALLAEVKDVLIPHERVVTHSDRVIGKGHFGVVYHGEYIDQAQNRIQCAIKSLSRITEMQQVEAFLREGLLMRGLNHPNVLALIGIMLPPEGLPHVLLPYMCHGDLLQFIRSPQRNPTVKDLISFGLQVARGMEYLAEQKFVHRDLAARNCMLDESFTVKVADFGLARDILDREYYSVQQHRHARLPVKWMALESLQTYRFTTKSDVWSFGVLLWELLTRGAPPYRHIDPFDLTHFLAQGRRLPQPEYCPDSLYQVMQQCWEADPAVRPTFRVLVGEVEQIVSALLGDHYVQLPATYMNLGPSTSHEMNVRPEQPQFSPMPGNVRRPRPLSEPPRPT
Serine/threonine-protein kinase SIK1 (Homo sapiens), sequence (P57059 whole entry): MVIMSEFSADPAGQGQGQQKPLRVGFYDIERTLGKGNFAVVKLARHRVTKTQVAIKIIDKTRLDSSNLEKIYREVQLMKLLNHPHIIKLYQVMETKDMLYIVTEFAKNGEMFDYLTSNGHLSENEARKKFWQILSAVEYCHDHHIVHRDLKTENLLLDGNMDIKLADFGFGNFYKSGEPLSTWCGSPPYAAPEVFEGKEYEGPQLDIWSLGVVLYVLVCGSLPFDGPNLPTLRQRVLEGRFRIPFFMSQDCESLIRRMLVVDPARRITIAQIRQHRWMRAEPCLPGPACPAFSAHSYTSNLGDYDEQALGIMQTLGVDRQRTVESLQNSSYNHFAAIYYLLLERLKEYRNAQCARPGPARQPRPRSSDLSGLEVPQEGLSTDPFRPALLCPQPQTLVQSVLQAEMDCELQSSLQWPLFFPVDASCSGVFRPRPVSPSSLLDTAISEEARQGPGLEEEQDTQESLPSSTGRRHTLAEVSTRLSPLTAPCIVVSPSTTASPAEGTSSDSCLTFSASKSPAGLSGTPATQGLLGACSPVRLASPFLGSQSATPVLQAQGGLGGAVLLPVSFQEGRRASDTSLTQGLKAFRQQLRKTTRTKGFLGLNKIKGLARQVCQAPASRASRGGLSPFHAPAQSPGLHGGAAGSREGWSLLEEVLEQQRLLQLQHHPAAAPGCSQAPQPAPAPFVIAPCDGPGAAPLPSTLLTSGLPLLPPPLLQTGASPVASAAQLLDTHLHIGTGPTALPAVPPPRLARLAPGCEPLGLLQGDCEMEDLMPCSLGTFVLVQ
RAC-beta serine/threonine-protein kinase (Homo sapiens), sequence (P31751 whole entry): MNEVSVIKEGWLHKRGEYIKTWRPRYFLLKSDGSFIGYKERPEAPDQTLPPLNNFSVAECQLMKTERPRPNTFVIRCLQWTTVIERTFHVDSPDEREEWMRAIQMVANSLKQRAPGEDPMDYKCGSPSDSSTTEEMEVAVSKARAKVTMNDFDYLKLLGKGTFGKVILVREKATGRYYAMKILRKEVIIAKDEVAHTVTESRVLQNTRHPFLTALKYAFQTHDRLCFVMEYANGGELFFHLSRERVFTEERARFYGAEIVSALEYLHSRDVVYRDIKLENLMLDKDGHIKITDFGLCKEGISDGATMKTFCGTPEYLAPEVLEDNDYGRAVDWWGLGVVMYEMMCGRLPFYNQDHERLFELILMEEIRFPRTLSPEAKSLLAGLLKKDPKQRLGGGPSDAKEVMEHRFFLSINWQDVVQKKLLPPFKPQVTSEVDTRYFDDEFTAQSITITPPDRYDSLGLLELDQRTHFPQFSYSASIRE
Ephrin type-B receptor 3 (Homo sapiens), sequence (P54753 whole entry): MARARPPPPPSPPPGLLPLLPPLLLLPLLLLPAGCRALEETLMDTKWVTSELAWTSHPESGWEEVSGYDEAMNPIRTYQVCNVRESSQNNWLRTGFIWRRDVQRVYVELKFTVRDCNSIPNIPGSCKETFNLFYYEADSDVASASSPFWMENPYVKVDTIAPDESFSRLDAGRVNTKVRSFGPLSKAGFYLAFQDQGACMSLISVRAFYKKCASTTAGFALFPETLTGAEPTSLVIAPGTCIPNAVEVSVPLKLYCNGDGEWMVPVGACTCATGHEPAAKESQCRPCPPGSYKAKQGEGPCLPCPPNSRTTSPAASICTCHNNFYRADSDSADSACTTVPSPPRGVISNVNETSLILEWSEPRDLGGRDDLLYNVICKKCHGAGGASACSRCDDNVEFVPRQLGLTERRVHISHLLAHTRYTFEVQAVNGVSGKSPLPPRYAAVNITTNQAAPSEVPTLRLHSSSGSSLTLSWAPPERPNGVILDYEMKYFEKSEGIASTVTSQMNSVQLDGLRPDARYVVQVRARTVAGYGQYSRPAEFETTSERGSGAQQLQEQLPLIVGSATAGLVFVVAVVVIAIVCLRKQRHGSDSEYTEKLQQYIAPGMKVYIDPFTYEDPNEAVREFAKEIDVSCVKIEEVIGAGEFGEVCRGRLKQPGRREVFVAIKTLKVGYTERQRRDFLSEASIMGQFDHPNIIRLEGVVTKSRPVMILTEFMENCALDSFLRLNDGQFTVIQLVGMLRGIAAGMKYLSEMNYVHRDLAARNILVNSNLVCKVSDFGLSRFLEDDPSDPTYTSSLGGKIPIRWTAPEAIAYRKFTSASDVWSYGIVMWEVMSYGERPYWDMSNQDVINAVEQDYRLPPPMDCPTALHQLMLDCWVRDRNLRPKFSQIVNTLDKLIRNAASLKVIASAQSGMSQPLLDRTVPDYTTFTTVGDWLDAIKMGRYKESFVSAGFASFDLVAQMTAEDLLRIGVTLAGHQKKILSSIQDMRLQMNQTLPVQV
Tyrosine-protein kinase ITK/TSK (Homo sapiens), sequence (Q08881 whole entry): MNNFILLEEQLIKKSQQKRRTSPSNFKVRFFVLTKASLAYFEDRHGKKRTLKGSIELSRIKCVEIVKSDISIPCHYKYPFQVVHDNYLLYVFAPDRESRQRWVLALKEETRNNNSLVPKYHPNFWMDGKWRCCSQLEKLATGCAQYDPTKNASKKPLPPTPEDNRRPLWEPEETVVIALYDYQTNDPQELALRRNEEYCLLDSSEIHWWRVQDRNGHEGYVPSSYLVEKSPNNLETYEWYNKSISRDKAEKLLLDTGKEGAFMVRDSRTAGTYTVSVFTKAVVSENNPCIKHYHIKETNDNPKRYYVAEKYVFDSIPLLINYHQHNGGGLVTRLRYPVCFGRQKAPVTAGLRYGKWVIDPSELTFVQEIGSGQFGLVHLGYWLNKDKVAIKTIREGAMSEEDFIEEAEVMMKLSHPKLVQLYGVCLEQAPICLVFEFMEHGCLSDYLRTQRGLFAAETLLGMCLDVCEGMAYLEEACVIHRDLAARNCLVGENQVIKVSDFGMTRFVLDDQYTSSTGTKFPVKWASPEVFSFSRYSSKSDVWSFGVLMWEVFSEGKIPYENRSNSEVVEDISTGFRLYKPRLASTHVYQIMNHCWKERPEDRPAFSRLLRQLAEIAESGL
Serine/threonine-protein kinase 38-like (Homo sapiens), sequence (Q9Y2H1 2-464 limits assumed): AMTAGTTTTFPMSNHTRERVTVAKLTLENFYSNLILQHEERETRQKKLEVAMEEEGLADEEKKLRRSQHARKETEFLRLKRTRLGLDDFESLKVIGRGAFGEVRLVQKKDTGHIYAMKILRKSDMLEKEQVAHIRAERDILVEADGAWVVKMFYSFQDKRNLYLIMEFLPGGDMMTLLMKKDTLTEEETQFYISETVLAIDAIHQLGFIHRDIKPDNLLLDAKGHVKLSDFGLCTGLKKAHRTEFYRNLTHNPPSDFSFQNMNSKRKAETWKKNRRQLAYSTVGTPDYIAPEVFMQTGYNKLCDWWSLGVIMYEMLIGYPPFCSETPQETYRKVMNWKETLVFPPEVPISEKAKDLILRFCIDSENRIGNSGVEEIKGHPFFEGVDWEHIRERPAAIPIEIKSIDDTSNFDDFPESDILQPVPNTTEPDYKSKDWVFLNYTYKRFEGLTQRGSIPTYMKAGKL

Structure (SMILES): Cc1cc2c(-c3ccc(NC(=O)[C@H](N)CC(C)(C)C)cc3C)ccnc2[nH]1
- IC50 [1]: 0.051 µM (active)
- IC50 [2]: > 10 µM (not active)
- IC50 [3]: > 10 µM (not active)
- activity [4]: 103%
- activity (Aurora kinase B): 109%
- activity [5]: 99%
- activity [6]: 89%
- activity [7]: 108%
- activity [8]: 87%
- activity [9]: 104%
- activity [10]: 98%
- activity [11]: 79%
- activity [12]: 100%
- activity [13]: 100%
- activity [14]: 80%
- activity [15]: 92%
- activity [16]: 86%
- activity [17]: 85%
- activity [18]: 120%
- activity [19]: 109%
- activity [20]: 95%
- activity [21]: 112%
- activity [22]: 100%
- activity [23]: 107%
- activity [24]: 79%
- activity [25]: 105%
- activity [26]: 103%
- activity [27]: 109%
- activity [28]: 111%
- activity [29]: 113%
- activity [30]: 105%
- activity [31]: 105%
- activity [32]: 85%
- activity [33]: 91%
- activity [34]: 100%
- activity [35]: 103%
- activity [36]: 95%
- activity [37]: 94%
- activity [38]: 105%
